Measurements taken from patent publication US12312325B2, “Methods and compounds useful in the synthesis of an AAK1 inhibitor” (Lexicon Pharmaceuticals, Inc., priority 2022, dated 2025).
Where a name gives a salt, the structure may show the parent alone.

Columns and labels:
PC12 cells = details: treatment with the kinase inhibitor; cited from earlier work
water solubility = assay type: physicochemical; details: at 25° C.
Experimental: (§1) Instead, the melting of Form I is observed to recrystallize to another, metastable form having a melting point of about 172.5° C.

[1] = storage stability of the crystalline form; assay type: physicochemical; details: stored at 40° C. and 75% relative humidity for up to four weeks
Experimental: as §1

## COC(=O)[C@@]1(O)C[C@H]2O[C@]1(C)n1c3ccccc3c3c4c(c5c6ccccc6n2c5c31)C(=O)NC4 [Compound K252a, K252a]
PC12 cells
  Neuregulin-1 induced neurite outgrowth: potentiation of Neuregulin-1 induced neurite outgrowth

## CC(C)C[C@](C)(N)COc1ccc(-c2ccnc(C(F)F)c2)nc1C(F)F [Compound S, (S)-1-((2′,6-bis(difluoromethyl)-[2,4′-bipyridin]-5-yl)oxy)-2,4-dimethylpentan-2-amine hydrochloride]
Water solubility; listed as hydrochloride salt of Compound J, hydrochloride
  water solubility: 2.9 mg/mL

## CC(C)C[C@](C)(N)COc1ccc(-c2ccnc(C(F)F)c2)nc1C(F)F [Compound K, ((S)-1-((2′,6-bis(difluoromethyl)-[2,4′-bipyridin]-5-yl)oxy)-2,4-dimethylpentan-2-aminiumdihydrogen phosphate]
Water solubility; listed as Form I
  water solubility: 26.8 mg/mL
[1]
  stability on storage (form, morphology, purity): neither the form itself, its morphology, nor its purity changed
